Reference: patent US9445588B2, “Methods for increasing oil palm yield” (Valent BioSciences Corporation, priority 2014, dated 2016)

Tests used:
oil palm [1] = test: Field study, repeat bunch-directed preharvest application of AVG every 10 days (Example 1); type: in vivo, oil palm (bi-clonal DxP palms)
Experimental: Plant material: A field study was executed in a plantation in Malaysia to compare the effects of repeat bunch-directed applications of AVG to the untreated control (UTC). In this study, AVG was provided in a formulation as AVG-HCl at a concentration of 20% w/wt. For both treatments, 148 palms per block with 4 rows per block covering about 1.1 hectare were used. The bi-clonal DxP palms were 3 to 4 years old.
Treatment application: A motorized mist blower was used to apply AVG (500 ppm, at 600 mL/palm or 300 mg/palm/application) to the lower and most mature rows of bunches of each palm.
The time required for 360 degree spray application around each palm was about 30 seconds. Sprays were applied every 10 days which coincided with harvest frequency in this block. Treatments were applied from September to November 2013.
Harvest: Harvest picks occurred every 10 days. Bunches were harvested at the point of initial fruit drop. At harvest, UTC bunches had lost an average of 34.8 fruit/bunch and the AVG-treated bunches had lost 33.9 fruits/bunch. Bunch weight results were recorded over six harvests picks for the 10 representative palms that were tagged for each treatment.
Oil content: At each harvest pick beginning with the fourth harvest pick interval, bunches were selected and individually bagged, tagged, and transferred to the laboratory for determination of oil content. Bunch samples from each harvest were analyzed in the laboratory for oil content using standard methods (Blaak, et al., 1963, J. West African Institute of Oil Palm Research, 4:146-155).
Oil yield: Oil yield was determined as kg oil/bunch=oil content*bunch wt. […] Oil yield was 2.85 kg/bunch for the AVG treatment and 2.56 kg/bunch for the UTC.

oil palm [2] = test: Second field study, repeat preharvest AVG sprays every 20 days, harvest 10 days after treatment (Example 2); type: in vivo, oil palm (bi-clonal DxP palms); conditions: AVG 500 ppm
Experimental: Plant material: A second field study was executed in a plantation in Malaysia to compare the effects of repeat broadcast directed bunch applications of AVG to the untreated control (UTC). For both treatments, 148 palms per block with 4 rows per block covering about 1.1 ha were used. The bi-clonal DxP palms were 3 to 4 years old. Treatment application: A motorized mist blower was used to apply AVG (500 ppm at 600 mL/plant or 300 mg/palm/application) to the lower and most mature rows of bunches of each palm plant. The time required for 360 degree spray application per palm plant was about 30 seconds. Treatments were applied every 20 days and harvests of treated palms were 10 days after treatments. Untreated bunches were harvested every 10 days. Treatments were applied from September to November 2013. Oil yield: Oil yield was determined as kg oil/bunch=oil content*bunch wt. […] Oil yield was 2.80 kg/bunch for the AVG treatment and 2.51 kg/bunch for the UTC.

oil palm [3] = test: Oil quality (free fatty acid content) of oil from AVG-HCl treated oil palms; type: in vivo; conditions: Rath and Shashikant 2014, Valent BioSciences technical information
oil palm fruit = conditions: preharvest application to attached bunches of oil palm fruit; cited from earlier work

NCCO/C=C/[C@H](N)C(=O)O (stereo in doubt) [AVG, [S]-trans-2-amino-4-(2-aminoethoxy)-3-butenoic acid]
Average Oil Content (oil palm [1]; AVG 500 ppm, 600 mL/palm (300 mg/palm/application), sprays every 10 days, bunches from fourth harvest pick on): 0.284 oil wt/bunch wt
Oil Yield (oil content*bunch wt) (oil palm [1]; AVG 500 ppm, 600 mL/palm, sprays every 10 days): 2.85 kg oil/bunch
Average Bunch Weight (oil palm [1]; AVG 500 ppm, 600 mL/palm, sprays every 10 days, six harvest picks, 10 tagged palms): 10.02 kg/bunch
Average fruit lost per bunch at harvest (oil palm [1]; bunches harvested at the point of initial fruit drop, UTC 34.8 fruit/bunch): 33.9 fruits/bunch
Average Bunch Weight (oil palm [2]; 600 mL/plant): 9.36 kg/bunch
Oil Yield (oil content*bunch wt) (oil palm [2]; 600 mL/plant): 2.80 kg oil/bunch
Average Oil Content (oil palm [2]; 600 mL/plant (300 mg/palm/application)): 0.299 oil wt/bunch wt

Cl.NCCO/C=C/[C@H](N)C(=O)O [AVG-HCl]
Free fatty acid content of the oil (oil palm [3]): did not have increased free fatty acid content

O=P(O)(O)CCCl [ethephon, 2-chloroethyl phosphonic acid]
Increase in oil content (oil palm fruit): 7%
